Source: publication PMC7238120, “Strong and Selective Inhibitory Effects of the Biflavonoid Selamariscina A against CYP2C8 and CYP2C9 Enzyme Activities in Human Liver Microsomes” (Pharmaceutics, 2020)
Like-named read-outs stand apart in the source and are kept apart here.

Assays:
CYP2C9 = CYP2C9 (Homo sapiens, UniProt P11712); assay: Inhibition of CYP2C9-catalyzed diclofenac 4-hydroxylation in pooled human liver microsomes; assay type: in vitro ADME; design: incubation mixtures containing pooled human liver microsomes (HLMs, XTreme 200, XenoTech); tissue XenoTech XTreme 200; host or cells: pooled human liver microsomes
Protocol: (§1) The inhibitory potential of the five biflavonoids on the metabolism of nine P450 probe substrates was evaluated using previously developed methods with minor modifications. Biflavonoids were dissolved in methanol. The final concentration of methanol in the incubation mixture was 1.0% (v/v). We used these P450 probe substrates: phenacetin for CYP1A2, coumarin for CYP2A6, bupropion for CYP2B6, amodiaquine for CYP2C8, diclofenac for CYP2C9, omeprazole for CYP2C19, dextromethorphan for CYP2D6, chlorzoxazone for CYP2E1 and midazolam for CYP3A (Table 1). […] The reaction was stopped by adding 50 μL of ice-cold acetonitrile containing 7 nM trimipramine (internal standard, IS). After centrifugation at 18,000 g (5 min, 4 °C), aliquots of supernatants were analyzed by LC-MS/MS (Shimadzu LCMS 8060 system, Shimadzu, Kyoto, Japan). All microsomal incubations were conducted in triplicate. We used HLMs to determine the mechanisms and constants (Ki values) for […] A inhibition of CYP1A2, CYP2B6, CYP2C8, CYP2C9 and CYP3A. […] The substrates were used at concentrations approximately near to their respective Km values. […] The other conditions were the same as in the cytochrome P450 inhibition study. […] Phenomenex, Torrance, CA, USA) and analyzed using a Shimadzu LCMS 8060 triple-quadrupole mass spectrometer coupled with a Nexera X2 ultra high-performance liquid chromatography system (Shimadzu, Kyoto, Japan) equipped with an electrospray ionization interface. The mobile phase consisted of 0.1% formic acid in water (A) and 0.1% formic acid in acetonitrile (B). […] The flow rate was 0.2 mL/min. Electrospray ionization was performed in positive-ion mode at 4000 V or in negative-ion mode at -3500 V. […] Quantitation was conducted in selected reaction monitoring (SRM) modes with the precursor-to-product ion transition for each metabolite (Table 1 and Table 2). We analyzed the data with Shimadzu LabSolution LC-MS software. The IC50 values were calculated by WinNonlin software (Pharsight, Mountain View, CA, USA). The type of inhibition and the apparent kinetic parameters for inhibitory activity (Ki) were determined by following several criteria: visual inspection of Dixon plots, Lineweaver-Burk double reciprocal plots, and secondary plots of Lineweaver-Burk plots versus biflavonoid concentrations, the size of the sum of squares of the residuals, Akaike Information Criteria values, the S.E. and 95% confidence interval of the parameter estimates from the nonlinear regression analysis using the WinNonlin software. The models tested included competitive, competitive partial, noncompetitive, noncompetitive partial, uncompetitive, uncompetitive partial, and mixed-type inhibition.

CYP1A2 = target: T1, CYP1A2 (Homo sapiens, UniProt P05177); assay: Inhibition of CYP1A2-catalyzed phenacetin O-deethylation in pooled human liver microsomes; assay type: in vitro ADME
T1 construct: incubation mixtures containing pooled human liver microsomes (HLMs, XTreme 200, XenoTech); tissue XenoTech XTreme 200; host or cells: pooled human liver microsomes
T1 sequence (P05177 1-516): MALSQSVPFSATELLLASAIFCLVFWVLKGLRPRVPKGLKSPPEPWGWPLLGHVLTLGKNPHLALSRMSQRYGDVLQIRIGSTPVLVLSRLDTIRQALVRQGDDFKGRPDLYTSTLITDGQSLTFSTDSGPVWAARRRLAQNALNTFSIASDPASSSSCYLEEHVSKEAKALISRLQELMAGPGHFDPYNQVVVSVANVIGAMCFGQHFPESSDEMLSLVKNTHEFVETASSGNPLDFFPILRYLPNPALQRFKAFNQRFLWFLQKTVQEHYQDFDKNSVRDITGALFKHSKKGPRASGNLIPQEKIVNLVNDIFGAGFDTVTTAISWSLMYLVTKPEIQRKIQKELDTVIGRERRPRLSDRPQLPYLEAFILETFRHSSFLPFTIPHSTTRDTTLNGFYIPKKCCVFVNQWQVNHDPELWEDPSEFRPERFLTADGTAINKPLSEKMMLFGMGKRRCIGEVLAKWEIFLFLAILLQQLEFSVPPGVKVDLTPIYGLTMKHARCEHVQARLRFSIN
Protocol: as §1

[1] = substrate diclofenac 10 µM, pooled HLMs, read-out: IC50, P450 2C9
[2] = substrate phenacetin 100 µM, pooled HLMs, read-out: IC50, P450 1A2
[3] = HLMs, average ± standard error, triplicate

CYP2C9, sequence (P11712 whole entry): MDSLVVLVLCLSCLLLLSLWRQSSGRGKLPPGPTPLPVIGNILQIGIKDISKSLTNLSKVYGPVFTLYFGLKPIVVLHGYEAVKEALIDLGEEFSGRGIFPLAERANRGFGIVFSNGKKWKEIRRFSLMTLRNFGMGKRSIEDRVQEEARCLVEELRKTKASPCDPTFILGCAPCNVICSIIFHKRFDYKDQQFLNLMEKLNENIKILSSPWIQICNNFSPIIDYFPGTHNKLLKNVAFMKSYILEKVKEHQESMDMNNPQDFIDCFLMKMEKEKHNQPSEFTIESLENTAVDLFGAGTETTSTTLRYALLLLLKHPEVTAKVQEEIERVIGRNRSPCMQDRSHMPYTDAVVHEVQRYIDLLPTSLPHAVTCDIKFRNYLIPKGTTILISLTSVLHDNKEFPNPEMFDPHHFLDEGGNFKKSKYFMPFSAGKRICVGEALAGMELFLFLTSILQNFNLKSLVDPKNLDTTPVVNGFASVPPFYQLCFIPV

SMILES | IC50 (CYP2C9; [1]) | IC50 (CYP1A2; [2]) | also measured
CC(C)(O)c1ccccc1CC[C@@H](SCC1(CC(=O)O)CC1)c1cccc(/C=C/c2ccc3ccc(Cl)cc3n2)c1 [montelukast, reference compound] | 9.73 µM | > 50 µM | inhibition at 10 min, 5 µM (CYP2C9; human, pooled human liver microsomes, probe diclofenac, inhibitor 5 μM, pooled HLMs): 31%
O=c1cc(-c2ccc(O)c(-c3c(O)cc(O)c4c(=O)cc(-c5ccc(O)cc5)oc34)c2)oc2cc(O)cc(O)c12 [amentoflavone] | – | – | IC50 (CYP2C9): 0.15 µM; IC50 (CYP1A2): 4.4 µM
O=c1cc(-c2ccc(O)c(-c3c(-c4ccc(O)cc4)oc4cc(O)cc(O)c4c3=O)c2)oc2cc(O)cc(O)c12 [taiwaniaflavone] | 0.2 µM | 6.8 µM | –
O=c1cc(-c2ccc(O)c(-c3c(O)cc4oc(-c5ccc(O)cc5)cc(=O)c4c3O)c2)oc2cc(O)cc(O)c12 [robustaflavone] | 0.15 µM | 4.5 µM | –
O=C1CC(c2cc(-c3c(O)ccc4c(=O)cc(-c5ccc(O)cc5)oc34)c(O)cc2O)Oc2cc(O)cc(O)c21 (stereo not drawn) [selamariscina A] | 0.047 µM | 7.4 µM | Mode of Inhibition, CYP2C9 diclofenac (CYP2C9; HLMs): Competitive; Ki (CYP2C9; [3]): 0.032 ± 0.007 µM; inhibition at 10 min, 0.5 µM (CYP2C9; human, pooled human liver microsomes, probe diclofenac, inhibitor 0.5 μM, pooled HLMs): 88.6%; Mode of Inhibition, CYP1A2 phenacetin (CYP1A2; HLMs): Competitive; Ki (CYP1A2; [3]): 3.1 ± 0.6 µM
O=c1cc(-c2ccc(O)cc2)oc2c(-c3c(O)cc(O)c4c(=O)cc(-c5ccc(O)cc5)oc34)c(O)cc(O)c12 [cupressuflavone] | 0.21 µM | 5.9 µM | –
